Assay results: ChEMBL document CHEMBL1201862, “PubChem BioAssay data set” (2004)
Activity calls are given as the source filed them.

Tests used:
[1] = target: Lysine-specific demethylase 4C (Homo sapiens, UniProt Q9H3R0); assay: inhibition of JMJD2C H3K9me3 demethylation – biochemical, DELFIA europium, cherry-picked samples, dose response (AID 488835); type: functional
[2] = target: T1, Tyrosine-protein phosphatase non-receptor type 7 (Homo sapiens, UniProt P35236); type: functional
T1 sequence (P35236 whole entry): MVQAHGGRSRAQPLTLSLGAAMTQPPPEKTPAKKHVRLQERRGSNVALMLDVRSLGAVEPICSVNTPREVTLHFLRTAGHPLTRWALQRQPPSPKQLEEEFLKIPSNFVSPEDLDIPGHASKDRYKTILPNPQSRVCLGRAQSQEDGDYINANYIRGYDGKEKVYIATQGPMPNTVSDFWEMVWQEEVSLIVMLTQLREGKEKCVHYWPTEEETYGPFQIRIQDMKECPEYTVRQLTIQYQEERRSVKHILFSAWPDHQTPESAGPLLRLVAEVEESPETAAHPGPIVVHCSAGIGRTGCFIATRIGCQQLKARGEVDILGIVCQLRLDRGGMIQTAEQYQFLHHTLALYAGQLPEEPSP

[3] = target: T2, Tyrosine-protein phosphatase non-receptor type 22 (Homo sapiens, UniProt Q9Y2R2); type: functional
T2 sequence (Q9Y2R2 whole entry): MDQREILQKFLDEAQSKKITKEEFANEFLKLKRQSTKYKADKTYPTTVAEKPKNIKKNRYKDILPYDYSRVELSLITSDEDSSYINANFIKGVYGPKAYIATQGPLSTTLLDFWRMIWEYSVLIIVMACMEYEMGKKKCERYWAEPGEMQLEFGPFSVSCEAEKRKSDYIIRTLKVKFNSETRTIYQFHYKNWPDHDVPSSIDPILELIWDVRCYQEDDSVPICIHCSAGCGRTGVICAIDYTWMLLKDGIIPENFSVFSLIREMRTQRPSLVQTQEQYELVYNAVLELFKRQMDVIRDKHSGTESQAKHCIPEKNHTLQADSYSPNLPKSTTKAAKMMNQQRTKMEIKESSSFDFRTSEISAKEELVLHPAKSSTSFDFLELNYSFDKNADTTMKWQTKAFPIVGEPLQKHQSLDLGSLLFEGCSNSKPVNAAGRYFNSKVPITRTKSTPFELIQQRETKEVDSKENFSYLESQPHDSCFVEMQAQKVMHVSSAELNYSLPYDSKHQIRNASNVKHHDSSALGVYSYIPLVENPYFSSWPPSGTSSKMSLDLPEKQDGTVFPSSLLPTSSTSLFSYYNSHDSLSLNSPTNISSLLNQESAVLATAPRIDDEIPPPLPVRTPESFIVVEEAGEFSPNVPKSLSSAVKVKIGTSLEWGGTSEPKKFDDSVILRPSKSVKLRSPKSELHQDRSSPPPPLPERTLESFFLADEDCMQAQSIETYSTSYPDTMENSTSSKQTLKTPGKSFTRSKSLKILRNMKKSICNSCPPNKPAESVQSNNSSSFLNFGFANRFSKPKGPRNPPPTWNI

[4] = target: T2, Tyrosine-protein phosphatase non-receptor type 22; type: functional; remark: listed apart in the source
[5] = target: T3, Delta-type opioid receptor (Homo sapiens, UniProt P41143); assay: HTS Image-Based Screen for Antagonists of the DOR Receptor. [Related pubchem assays (depositor defined):AID1777, AID1785, AID1786, AID2133]; type: functional
Mu-type opioid receptor = Mu-type opioid receptor (Homo sapiens, UniProt P35372); assay: HTS Image-Based Screen for Agonists of the MOR Receptor. [Related pubchem assays (depositor defined):AID1777, AID1785, AID1786, AID2133]; type: functional;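 further: imaging of beta-arrestin GFP recruitment into spots after receptor activation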
[6] = target: T3, Delta-type opioid receptor; assay: HTS Image-Based Screen for Agonists of the DOR Receptor. [Related pubchem assays (depositor defined):AID1777, AID1786, AID2133]; type: functional
[7] = target: T4, Kappa-type opioid receptor (Homo sapiens, UniProt P41145); type: functional
[8] = target: T4, Kappa-type opioid receptor; type: functional; remark: listed apart in the source
[9] = target: T5, Corticotropin-releasing factor receptor 2/Corticotropin-releasing factor-binding protein (Homo sapiens, UniProt P24387+Q13324); assay: activators of CRF receptor 2 with binding protein – uHTS hits, confirmation (AID 602473); type: functional; conditions: read-out: EC50_Mean
T5 sequence (Q13324 whole entry): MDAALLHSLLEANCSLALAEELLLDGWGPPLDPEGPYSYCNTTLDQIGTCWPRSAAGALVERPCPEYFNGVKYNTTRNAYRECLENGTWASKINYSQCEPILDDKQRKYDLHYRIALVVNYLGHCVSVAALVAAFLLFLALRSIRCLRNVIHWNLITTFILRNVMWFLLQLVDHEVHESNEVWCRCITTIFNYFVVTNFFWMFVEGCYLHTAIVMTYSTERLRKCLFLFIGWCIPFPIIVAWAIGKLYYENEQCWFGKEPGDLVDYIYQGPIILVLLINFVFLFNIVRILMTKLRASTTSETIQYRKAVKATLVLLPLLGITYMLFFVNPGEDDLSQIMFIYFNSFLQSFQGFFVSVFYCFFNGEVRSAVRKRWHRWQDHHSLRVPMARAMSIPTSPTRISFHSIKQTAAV
T5 sequence (P24387 whole entry): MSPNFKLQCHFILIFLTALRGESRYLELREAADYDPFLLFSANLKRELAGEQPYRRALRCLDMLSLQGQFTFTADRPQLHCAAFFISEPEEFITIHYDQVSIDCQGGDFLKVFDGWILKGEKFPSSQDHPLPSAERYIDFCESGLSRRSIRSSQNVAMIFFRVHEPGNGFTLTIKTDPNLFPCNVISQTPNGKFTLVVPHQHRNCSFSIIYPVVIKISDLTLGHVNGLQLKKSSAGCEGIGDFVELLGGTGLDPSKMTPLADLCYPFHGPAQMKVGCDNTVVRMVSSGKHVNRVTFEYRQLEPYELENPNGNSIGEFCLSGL

Vero [10] = assay: cells; type: functional, cell-based; conditions: Chlorocebus sabaeus
Vero [11] = assay: cells; type: functional; conditions: Chlorocebus sabaeus

T4 sequence (P41145 whole entry): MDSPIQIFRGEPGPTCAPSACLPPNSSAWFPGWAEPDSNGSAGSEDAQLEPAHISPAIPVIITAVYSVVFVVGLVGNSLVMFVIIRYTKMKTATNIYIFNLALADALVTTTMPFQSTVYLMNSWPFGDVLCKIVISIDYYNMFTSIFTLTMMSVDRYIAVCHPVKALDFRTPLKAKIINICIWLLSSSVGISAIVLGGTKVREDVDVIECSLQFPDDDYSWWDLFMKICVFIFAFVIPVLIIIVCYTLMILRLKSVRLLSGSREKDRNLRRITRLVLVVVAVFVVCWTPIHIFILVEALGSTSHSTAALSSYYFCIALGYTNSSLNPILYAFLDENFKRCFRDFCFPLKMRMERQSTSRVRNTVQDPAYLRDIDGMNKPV
T3 sequence (P41143 whole entry): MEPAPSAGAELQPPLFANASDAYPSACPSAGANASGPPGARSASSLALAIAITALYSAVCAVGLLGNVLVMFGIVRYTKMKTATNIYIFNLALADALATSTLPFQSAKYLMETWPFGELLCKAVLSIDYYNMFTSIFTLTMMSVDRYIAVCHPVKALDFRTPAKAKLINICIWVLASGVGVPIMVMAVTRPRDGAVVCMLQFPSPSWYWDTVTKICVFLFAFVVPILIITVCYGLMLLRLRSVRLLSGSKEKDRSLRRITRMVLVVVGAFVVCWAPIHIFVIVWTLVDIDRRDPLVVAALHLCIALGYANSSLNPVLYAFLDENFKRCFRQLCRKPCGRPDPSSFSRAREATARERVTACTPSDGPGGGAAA
Mu-type opioid receptor, sequence (P35372 whole entry): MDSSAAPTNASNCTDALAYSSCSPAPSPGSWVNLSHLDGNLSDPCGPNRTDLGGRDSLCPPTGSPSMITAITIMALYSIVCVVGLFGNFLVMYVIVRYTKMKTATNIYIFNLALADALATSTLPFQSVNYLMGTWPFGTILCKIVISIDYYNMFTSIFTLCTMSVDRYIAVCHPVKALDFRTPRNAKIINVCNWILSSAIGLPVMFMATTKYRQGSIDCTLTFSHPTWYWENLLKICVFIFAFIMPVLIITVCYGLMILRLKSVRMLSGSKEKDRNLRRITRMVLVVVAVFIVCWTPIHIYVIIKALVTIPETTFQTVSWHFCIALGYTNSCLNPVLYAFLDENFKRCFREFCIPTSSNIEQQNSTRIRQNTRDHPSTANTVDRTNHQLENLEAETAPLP
Lysine-specific demethylase 4C, sequence (Q9H3R0 whole entry): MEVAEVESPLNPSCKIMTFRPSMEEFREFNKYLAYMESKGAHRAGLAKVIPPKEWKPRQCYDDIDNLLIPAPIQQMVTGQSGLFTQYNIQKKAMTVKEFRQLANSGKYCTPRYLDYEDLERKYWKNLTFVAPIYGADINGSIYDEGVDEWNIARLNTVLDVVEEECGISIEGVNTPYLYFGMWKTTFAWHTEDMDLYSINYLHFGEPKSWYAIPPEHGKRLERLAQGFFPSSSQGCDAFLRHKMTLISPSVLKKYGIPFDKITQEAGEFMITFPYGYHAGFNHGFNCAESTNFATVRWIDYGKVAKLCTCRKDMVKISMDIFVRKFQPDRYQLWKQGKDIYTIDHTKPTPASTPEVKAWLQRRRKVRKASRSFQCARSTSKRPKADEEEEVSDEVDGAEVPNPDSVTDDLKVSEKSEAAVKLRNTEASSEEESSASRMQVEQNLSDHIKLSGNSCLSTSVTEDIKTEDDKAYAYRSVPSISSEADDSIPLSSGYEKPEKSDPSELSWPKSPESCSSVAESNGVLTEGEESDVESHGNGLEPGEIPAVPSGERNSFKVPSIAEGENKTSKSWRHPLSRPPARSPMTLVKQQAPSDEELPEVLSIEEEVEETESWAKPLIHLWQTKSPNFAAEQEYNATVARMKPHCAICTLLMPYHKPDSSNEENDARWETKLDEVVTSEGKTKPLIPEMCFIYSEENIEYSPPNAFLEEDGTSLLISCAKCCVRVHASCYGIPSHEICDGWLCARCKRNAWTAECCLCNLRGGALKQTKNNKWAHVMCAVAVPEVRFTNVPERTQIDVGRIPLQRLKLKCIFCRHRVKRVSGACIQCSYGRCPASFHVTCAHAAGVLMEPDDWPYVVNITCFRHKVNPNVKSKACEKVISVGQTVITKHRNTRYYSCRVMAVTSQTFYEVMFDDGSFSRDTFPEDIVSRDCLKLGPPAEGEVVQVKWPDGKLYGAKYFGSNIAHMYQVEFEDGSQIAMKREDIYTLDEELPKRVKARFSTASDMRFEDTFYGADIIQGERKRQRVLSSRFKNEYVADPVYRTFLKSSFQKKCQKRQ

CCOc1ccc(N2C(=O)CC(N(O)c3ccccc3)C2=O)cc1 (configuration not stated)
AC50 [1]: 12.7 µM (active)

Cc1ccc(C)n1-c1ccc(-c2cc[nH]n2)cc1
IC50 [2]: > 79.4 µM (inactive)
IC50 [3]: > 79.4 µM (inactive)
IC50 [4]: > 79.4 µM (inactive)

O=C(c1ccc([N+](=O)[O-])cc1)N(Cc1ccc(Cl)cc1)N1C(=O)CCCC1=O
IC50 [5]: > 32 µM (inactive)
EC50 (Mu-type opioid receptor): > 32 µM (inactive)
EC50 [6]: > 32 µM (inactive)
EC50 [7]: > 35 µM
EC50 [8]: 5.66 µM
EC50 [9]: 0.709 µM (active)

COc1cccc(/C=C/C(=O)c2ccc3c(c2)OCO3)c1OC
IC50 (Vero [10]): > 25 µM (active)
CC50 (Vero [11]): > 25 µM (active)
